Values quoted from earlier work as cited in patent publication US20250288585A1, “SYNERGISTIC COMPOSITIONS FOR ENHANCED HAIR GROWTH AND METHODS FOR TREATING HAIR LOSS” (The Johns Hopkins University, priority 2024, published 2025).

How the values were obtained:
[1] = system: subjects with androgenetic alopecia; conditions: topical tretinoin alone
[2] = system: follicular sulfotransferase; conditions: topical 0.1% tretinoin, plucked hairs, in vitro
[3] = liposomal hydrogel system

Structure (SMILES) | subjects with some hair regrowth [1] | effect on expression of follicular sulfotransferase [2] | permeation through skin ex vivo [3]
CC1=C(/C=C/C(C)=C/C=C/C(C)=C/C(=O)O)C(C)(C)CCC1 [tretinoin, all-trans-retinoic acid] | approximately 58% | influences the expression of follicular sulfotransferase | retained on the skin
Nc1cc(N2CCCCC2)nc(N)[n+]1[O-] [minoxidil] | – | – | enhanced the permeation
